Results: patent US20190030053A1, “COMPOSITION FOR INCREASING EXPRESSION OF PGC-1alpha” (BENEBIOSIS CO., LTD., priority 2016, published 2019)
Entries after “also recorded” stand apart in the source; their conditions may differ.

Legend:
PGC-1α and related genes [1] = assay: Gene expression in muscle cell test (C2C12); assay type: cell-based; details: C2C12 immature muscle cells, 24 hours
Description: C2C12 immature muscle cells were prepared from the purchase from American Tissue Culture Collection (ATCC, USA). The cells were cultured in Dulbecco's modified Eagle's medium (DMEM, Gibco, USA) supplemented with 10% fetal bovine serum (FBS, USA) in a 5% CO2 incubator at 37° C. until the cells grew to confluency of 70%, while the medium was exchanged every two days. The differentiation into muscle cells was induced by culturing in a medium containing 2% horse serum (HS, Gibco, USA). The muscle cells cultured in the medium containing 2% HS for 4 days were treated with SL with various concentrations. The negative control group was treated with physiological saline with 1/1000 of the volume of the medium. The cells treated with each sample were incubated at 37° C. for 24 hours, and then washed twice with cool saline solution, and RNA was extracted using TRIzol agent (Invitrogen). cDNA was synthesized by using 1 μg/μl of RNA, which has been extracted as above and quantified, and a reverse transcription system (Promega, USA).
The expression patterns of PGC-1α and related genes were measured by using pre-designed primers and probes (Applied Biosystems; PGC-1α, Mm00447181_m1, GAPDH, and Mm99999915_q1) for the synthesized cDNA and analysis targets (Fndc5, PGC-1α, Erra, UCP1, SOD2, and GPX1). […]

ICH models = assay: Modified limb placing test (MLPT) in intracerebral hemorrhage (ICH) models; assay type: in vivo, rat; details: first day and third day after ICH induction; intraperitoneal
Excerpt: In order to investigate the changes in ischemic volume and modified limb placing test (MLPT) score by treatment with SL (3′-SL & 6′-SL) compositions in stroke models, 4-week-old mice were purchased from Central Lab Animal (Korea). Water was freely accessible, and a commercially available pellet feed (Dooyeul Biotech, Korea) was given for one week. Stroke models involving temporary and permanent middle cerebral artery (MCA) occlusion and intracerebral hemorrhage (ICH) were fabricated using 6-week-old male Sprague-Dawley rats (weight, average 185.3±15.8 g) and male BALB/c mice weight, average 24.6±3.8 g). […] The model was suspended at 10 cm above a table, and the stretch of the forelimbs toward the table was scored (0 points for normal stretch and 1 point for abnormal fexion). […] The evaluation results for three tasks were scored in the following manner: 0 points for normal performance, 1 point for performance with a delay (at least 2 seconds) or incomplete performance, and 2 points for no performance. […]

PGC-1α and related genes [2] = assay: Gene expression by body parts in skin test models; assay type: in vivo, mouse; details: HRM2 mice, oral 0.1 mg/kg/day, 10 weeks; organs and muscles
Excerpt: In order to investigate the gene expression chages by body parts by the treatment with the SL (3′-SL & 6′-SL) compositions in skin test models, 6-week-old male skin test model (HRM2) mice (hairless appearance containing melanin) were randomly grouped into three different dietary treatment groups (8 animals per group, a total of 24 animals) below, and the diets (AIN-76A, Dyets, USA) were maintained for 10 weeks. […]
The gene expression changes by administration of the SL (3′-SL & 6′-SL) compositions were quantitatively compared for eight main organs (heart, hippocampus, brain, spinal cord, lung, liver, spleen, and kidney), three skeletal muscles (soleus muscle, quadriceps femoris muscle, and gastrocnemius muscle), and the like. RNA was extracted by TRIzol agent (Invitrogen). cDNA was synthesized by using RNA, which has been extracted as above and quantified, and a reverse transcription system (Promega, USA). The expression patterns of PGC-1α and related genes were measured by using pre-designed primers and probes (Applied Biosystems; PGC-1α, Mm00447181_m1, GAPDH, and Mm99999915_q1) for the synthesized cDNA and analysis targets (Fndc5, PGC-1α, Erra, UCP1, SOD2, and GPX1). […]

| Structure (SMILES) | expression levels of analysis targets (Fndc5, PGC-1α, Erra, UCP1, BDNF, SOD2, GPX1) vs negative control (PGC-1α and related genes [1]) | MLPT test score vs control group (neurodegeneration inhibitory effects) (ICH models) | expression levels of analysis targets (Fndc5, PGC-1α, Erra, UCP1, SOD2, GPX1) vs negative control (PGC-1α and related genes [2]) |
| --- | --- | --- | --- |
| CC(=O)N[C@H]1[C@H]([C@H](O)[C@H](O)CO)O[C@@](O[C@H]2[C@@H](O)[C@@H](CO)O[C@@H](O[C@H]3[C@H](O)[C@@H](O)C(O)O[C@@H]3CO)[C@@H]2O)(C(=O)O)C[C@@H]1O (stereo partly drawn) [3′-SL, α-NeuNAc-(2→3)-β-D-Gal-(1→4)-D-Glc] | significant increases; also recorded: lower than that of 6′-SL | relatively low compared with 6′-SL | relatively low compared with 6′-SL |
| CC(=O)N[C@H]1[C@H]([C@H](O)[C@H](O)CO)O[C@@](OC[C@H]2O[C@@H](O[C@H]3[C@H](O)[C@@H](O)[C@H](O)O[C@@H]3CO)[C@H](O)[C@@H](O)[C@H]2O)(C(=O)O)C[C@@H]1O [6′-SL, α-NeuNAc-(2→6)-β-D-Gal-(1→4)-D-Glc] | significant increases | lower | very excellent |
